Results: patent US9242996B2 (Novartis AG, priority 2013, dated 2016)

Columns and labels:
Format in all cases: biochemical
ERK2 = ERK2 (Homo sapiens (Human), UniProt P28482); test: ERK2 Alphascreen
activated ERK2 [1] = molecular target: T1, activated ERK2 (Homo sapiens (Human), UniProt P28482); test: Activated ERK2 kinase assay, ERK2 New conditions (AlphaScreen, ERKtide phosphorylation); settings: 0.25 nM ERK2, 200 nM ERKtide peptide, 35 μM ATP, 30 min preincubation
How it was run: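 Read-out is AlphaScreen with anti-phospho-EGFR (Thr669) antibody after EDTA quench and overnight dark incubation. Reaction: 0.25 nM ERK2, 30 min compound preincubation, then 200 nM ERKtide plus 35 µM ATP for 2–3 h at ambient temperature, pH 7.5. IC50 by four-parameter fit.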

activated ERK2 [2] = molecular target: T1, activated ERK2; test: Activated ERK2 (20 pM) Kinase Assay (AlphaScreen, ERKtide phosphorylation); settings: 0.02 nM ERK2, 400 nM ERKtide peptide, 35 μM ATP, 30 min preincubation
How it was run: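 AlphaScreen read-out (anti-phospho-EGFR Thr669 antibody, protein A acceptor/streptavidin donor beads) of ERKtide (400 nM) phosphorylation by 20 pM activated ERK2 at 35 μM ATP.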

T1 sequence (P28482 whole entry): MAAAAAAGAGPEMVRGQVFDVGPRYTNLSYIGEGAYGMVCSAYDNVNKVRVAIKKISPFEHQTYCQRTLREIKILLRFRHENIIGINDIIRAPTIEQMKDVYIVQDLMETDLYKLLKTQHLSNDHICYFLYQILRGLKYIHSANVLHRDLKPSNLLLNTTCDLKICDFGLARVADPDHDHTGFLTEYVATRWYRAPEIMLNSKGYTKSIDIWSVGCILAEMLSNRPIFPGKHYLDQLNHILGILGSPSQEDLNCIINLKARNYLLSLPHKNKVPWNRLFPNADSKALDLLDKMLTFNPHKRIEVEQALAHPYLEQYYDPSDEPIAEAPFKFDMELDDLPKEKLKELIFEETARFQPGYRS
Chain of ERK2 (P28482 whole entry, species assumed): as the sequence (P28482 whole entry) above

Row | IC50 (ERK2) [nM] | IC50 (activated ERK2 [1]) [nM] | IC50 (activated ERK2 [2]) [nM] | Compound
1 | 1.06 | 1.63 | – | Nc1ncc(C2CCOCC2)nc1-c1ccc(C(=O)N[C@H](CO)c2ccccc2)cc1 [Example 1, (S)-4-(3-amino-6-(tetrahydro-2H-pyran-4-yl)pyrazin-2-yl)-N-(2-hydroxy-1-phenylethyl)benzamide]
2 | 192 | – | – | Nc1ncc(C2CCNCC2)cc1-c1ccc(C(=O)N[C@H](CO)c2ccccc2)c(F)c1 [Example 2, (S)-4-(2-amino-5-(piperidin-4-yl)pyridin-3-yl)-2-fluoro-N-(2-hydroxy-1-phenylethyl)benzamide]
3 | 31.2 | 30.3 | – | CN(Cc1ccccc1)C(=O)c1ccc(-c2nc(C3CCOCC3)cnc2N)cc1F [Example 52, 4-(3-amino-6-(tetrahydro-2H-pyran-4-yl)pyrazin-2-yl)-N-benzyl-2-fluoro-N-methylbenzamide]
4 | 3.64 | – | 4.36 | Nc1ncc(C2CCOCC2)cc1-c1ccc(C(=O)N[C@H](CO)c2ccccc2)cc1 [Example 64, (S)-4-(2-amino-5-(tetrahydro-2H-pyran-4-yl)pyridin-3-yl)-N-(2-hydroxy-1-phenylethyl)benzamide]
5 | 1.84 | – | 0.684 | Cc1cc(-c2cc(C3CCOCC3)cnc2N)ccc1C(=O)N[C@H](CO)c1ccccc1 [Example 65, (S)-4-(2-amino-5-(tetrahydro-2H-pyran-4-yl)pyridin-3-yl)-N-(2-hydroxy-1-phenylethyl)-2-methylbenzamide]
6 | 55.3 | – | 41.8 | Nc1ncc(C2CCOCC2)cc1-c1ccc(C(=O)NCc2ccccc2)cc1 [Example 66, 4-(2-amino-5-(tetrahydro-2H-pyran-4-yl)pyridin-3-yl)-N-benzylbenzamide]
7 | 85.5 | – | 67.7 | CN(C)c1cccc(CNC(=O)c2ccc(-c3cc(C4CCOCC4)cnc3N)cc2)c1 [Example 67, 4-(2-amino-5-(tetrahydro-2H-pyran-4-yl)pyridin-3-yl)-N-(3-(dimethylamino)benzyl)benzamide]
8 | 214 | 314 | – | Nc1ncc(C2CCOCC2)cc1-c1ccc(C(=O)N[C@H](CO)c2ccccc2)cc1Cl [Example 68, (S)-4-(2-amino-5-(tetrahydro-2H-pyran-4-yl)pyridin-3-yl)-3-chloro-N-(2-hydroxy-1-phenylethyl)benzamide]
9 | 16 | – | 10 | C[C@@H](NC(=O)c1ccc(-c2cc(C3CCOCC3)cnc2N)cc1)c1ccccc1 [Example 69, (R)-4-(2-amino-5-(tetrahydro-2H-pyran-4-yl)pyridin-3-yl)-N-(1-phenylethyl)benzamide]
10 | 574 | – | 331 | Cc1cc(C(=O)N[C@H](CO)c2ccccc2)ccc1-c1cc(C2CCOCC2)cnc1N [Example 70, (S)-4-(2-amino-5-(tetrahydro-2H-pyran-4-yl)pyridin-3-yl)-N-(2-hydroxy-1-phenylethyl)-3-methylbenzamide]
11 | 17.2 | – | 8.78 | Nc1ncc(C2CCOCC2)cc1-c1ccc(C(=O)N[C@H](CO)c2ccccc2)cc1F [Example 71, (S)-4-(2-amino-5-(tetrahydro-2H-pyran-4-yl)pyridin-3-yl)-3-fluoro-N-(2-hydroxy-1-phenylethyl)benzamide]
12 | 1160 | 1220 | – | Nc1ncc(C2CCOCC2)cc1-c1ccc(C(=O)NCc2cnccn2)c(F)c1 [Example 75, 4-(2-amino-5-(tetrahydro-2H-pyran-4-yl)pyridin-3-yl)-2-fluoro-N-(pyrazin-2-ylmethyl)benzamide]
13 | 97.6 | – | 50.8 | Nc1ncc(C2CCS(=O)(=O)CC2)cc1-c1ccc(C(=O)N[C@H](CO)c2ccccc2)cc1 [Example 77, (S)-4-(2-amino-5-(1,1-dioxidotetrahydro-2H-thiopyran-4-yl)pyridin-3-yl)-N-(2-hydroxy-1-phenylethyl)benzamide]
14 | 0.584 | – | 0.51 | Nc1ncc(-c2ccncc2)cc1-c1ccc(C(=O)N[C@H](CO)c2ccccc2)cc1 [Example 80, (S)-4-(6-amino-[3,4′-bipyridin]-5-yl)-N-(2-hydroxy-1-phenylethyl)benzamide]
15 | 2.13 | – | 0.9 | Cc1cnccc1-c1cnc(N)c(-c2ccc(C(=O)N[C@H](CO)c3ccccc3)cc2)c1 [Example 82, (S)-4-(6-amino-3′-methyl-3,4′-bipyridin-5-yl)-N-(2-hydroxy-1-phenylethyl)benzamide]
16 | 9.64 | – | 2.05 | C[C@@H]1COCCN1c1cnc(N)c(-c2ccc(C(=O)N[C@H](CO)c3ccccc3)c(F)c2)c1 [Example 84, 4-(2-amino-5-((R)-3-methylmorpholino)pyridin-3-yl)-2-fluoro-N-((S)-2-hydroxy-1-phenylethyl)benzamide]
17 | 4.78 | – | 3.75 | Nc1ncc(C2CCOCC2)cc1-c1ccc(C(=O)NCc2cccc(Cl)c2)cc1 [Example 86, 4-(2-amino-5-(tetrahydro-2H-pyran-4-yl)pyridin-3-yl)-N-(3-chlorobenzyl)benzamide]

Row | IC50 (ERK2) [nM] | IC50 (activated ERK2 [1]) [nM] | IC50 (activated ERK2 [2]) [nM] | Compound
18 | 266 | – | 209 | Nc1ncc(C2CCOCC2)cc1-c1ccc(C(=O)NCc2ccccc2Cl)cc1 [Example 87, 4-(2-amino-5-(tetrahydro-2H-pyran-4-yl)pyridin-3-yl)-N-(2-chlorobenzyl)benzamide]
19 | 81.4 | – | 70.5 | Nc1ncc(C2CCOCC2)cc1-c1ccc(C(=O)NCc2ccc(Cl)cc2)cc1 [Example 88, 4-(2-amino-5-(tetrahydro-2H-pyran-4-yl)pyridin-3-yl)-N-(4-chlorobenzyl)benzamide]
20 | 9.8 | – | 20.2 | Nc1ncc(C2CCOCC2)cc1-c1ccc(C(=O)NCc2cccc(C(F)(F)F)c2)cc1 [Example 89, 4-(2-amino-5-(tetrahydro-2H-pyran-4-yl)pyridin-3-yl)-N-(3-(trifluoromethyl)benzyl)benzamide]
21 | 49 | – | 33 | Nc1ncc(C2CCOCC2)cc1-c1ncc(C(=O)N[C@H](CO)c2ccccc2)cn1 [Example 90, (S)-2-(2-amino-5-(tetrahydro-2H-pyran-4-yl)pyridin-3-yl)-N-(2-hydroxy-1-phenylethyl)pyrimidine-5-carboxamide]
22 | 559 | – | 284 | Nc1ncc(C2CCOCC2)cc1-c1ccc(C(=O)NCC2CC2)cc1 [Example 91, 4-(2-amino-5-(tetrahydro-2H-pyran-4-yl)pyridin-3-yl)-N-(cyclopropylmethyl)benzamide]
23 | 267 | – | 135 | CC(=O)Nc1cccc(CNC(=O)c2ccc(-c3cc(C4CCOCC4)cnc3N)cc2)c1 [Example 92, N-(3-acetamidobenzyl)-4-(2-amino-5-(tetrahydro-2H-pyran-4-yl)pyridin-3-yl)benzamide]
24 | 887 | – | 505 | Nc1ncc(C2CCOCC2)cc1-c1ccc(C(=O)NCc2cccnc2)cc1 [Example 93, 4-(2-amino-5-(tetrahydro-2H-pyran-4-yl)pyridin-3-yl)-N-(pyridin-3-ylmethyl)benzamide]
25 | 0.914 | – | 0.879 | Nc1ncc(C2CCOCC2)cc1-c1ccc(C(=O)N[C@H](CO)c2ccccc2)c(F)c1 [Example 94, (S)-4-(2-amino-5-(tetrahydro-2H-pyran-4-yl)pyridin-3-yl)-2-fluoro-N-(2-hydroxy-1-phenylethyl)benzamide]
26 | 0.533 | – | 0.136 | Cc1cc(-c2nc(C3CCOCC3)cnc2N)ccc1C(=O)N[C@H](CO)c1ccccc1 [Example 95, (S)-4-(3-amino-6-(tetrahydro-2H-pyran-4-yl)pyrazin-2-yl)-N-(2-hydroxy-1-phenylethyl)-2-methylbenzamide]
27 | 26.3 | – | 15.8 | COC(=O)N1CCC(c2cnc(N)c(-c3ccc(C(=O)N[C@H](CO)c4ccccc4)cc3)c2)CC1 [Example 98, (S)-methyl 4-(6-amino-5-(4-((2-hydroxy-1-phenylethyl)carbamoyl)phenyl)pyridin-3-yl)piperidine-1-carboxylate]
28 | 11 | – | 7.38 | Nc1ncc(N2CCOCC2)cc1-c1ccc(C(=O)N[C@H](CO)c2ccccc2)cc1 [Example 122, (S)-4-(2-amino-5-morpholinopyridin-3-yl)-N-(2-hydroxy-1-phenylethyl)benzamide]
29 | 0.265 | – | 0.364 | Cc1cnccc1-c1cnc(N)c(-c2ccc(C(=O)N[C@H](CO)c3ccccc3)c(F)c2)n1 [Example 143, (S)-4-(3-amino-6-(3-methylpyridin-4-yl)pyrazin-2-yl)-2-fluoro-N-(2-hydroxy-1-phenylethyl)benzamide]
30 | 0.758 | – | – | Nc1ncc(C2CCOCC2)nc1-c1ccc(C(=O)NCc2cccc(Cl)c2)c(F)c1 [Example 173, 4-(3-amino-6-(tetrahydro-2H-pyran-4-yl)pyrazin-2-yl)-N-(3-chlorobenzyl)-2-fluorobenzamide]
31 | 311 | – | 381 | Nc1ncc(C2CCOCC2)cc1-c1ccc(C(=O)NCc2ccnnc2)c(F)c1 [Example 318, 4-(2-amino-5-(tetrahydro-2H-pyran-4-yl)pyridin-3-yl)-2-fluoro-N-(pyridazin-4-ylmethyl) benzamide]
32 | – | 0.787 | 0.343 | COCC(=O)N[C@H]1CC[C@H](c2cnc(N)c(-c3ccc(C(=O)N[C@H](CO)c4cccc(Cl)c4)c(F)c3)n2)CC1 [Example 430, 4-(3-amino-6-((1r,4S)-4-(2-methoxy-acetamido)cyclohexyl)pyrazin-2-yl)-N-((S)-1-(3-chlorophenyl)-2-hydroxyethyl)-2-fluorobenzamide]
33 | 0.544 | – | 0.593 | (S)-4-(3-amino-6- (tetrahydro-2H- pyran-4- yl)pyrazin-2-yl)-2- fluoro-N-(2- hydroxy-1- phenylethyl) benzamide [Example 325]
